US7271161B2, “Platinum complexes as antitumor agents in combination with biochemical modulation” (Board of Regents, the University of Texas System, priority 2002, dated 2007)
Like-named read-outs stand apart in the source and are kept apart here.

How the values were obtained:
Human A2780 cell line = assay: MTT cytotoxicity assay, cisplatin-sensitive ovarian A2780 cells, with or without BSO; format: cell-based; settings: for IC50: Table 4
Text: (§1) The ovarian A2780 and 2008 cell lines are sensitive to cisplatin, while the corresponding 2780CP and 2008/C13* cell lines were selected for resistance following in vitro exposure to cisplatin. The SKOV-3 cell line was established from a patient who was resistant to cisplatin therapy and is considered a model of cisplatin resistance. The A2780 and 2780CP cells have wild-type p53 function, while SKOV-3 is devoid of p53 function. The p53 status for the 2008 and 2008/C131 cells is presently not known.
(§2) Procedure for Cytotoxic Evaluation. All cell lines are maintained in RPMI 1640 medium supplemented with 10% fetal bovine serum, 50 μg/ml penicillin, 50 μg/ml streptomycin, 100 μg/ml neomycin and 0.3 mg/ml L-glutamine. The ovarian lines also require 2 μg/ml insulin for maximal growth. Cells are grown as monolayers at 37° C. in a humidified atmosphere of 5% CO2:95% air. Cytotoxicity is determined by a standard MTT assay. Briefly, the exponentially-growing cells are trypsinized to dislodge them before use. After diluting the tumor cells to appropriate concentrations (2,000-30,000 cells/ml), 100 μl aliquots of the cell suspensions are added to each well of a 96-well microtiter plate. The cells are allowed to attach overnight, and then exposed for 24 hr to BSO at a concentration that is equal to or less than maximally tolerated concentration (MTC). At 22 hr after addition of BSO, the platinum complex is added, and 2 hr later the cells are washed and reincubated. After another 5 days, when control cells are in an exponential phase of growth, 50 μl of an MTT solution (3 mg/ml) is added to each well. Following a 3-hr incubation, the medium is removed and replaced by 50 μl of 100% DMSO to dissolve MTT formazan crystals. Plates are agitated on a plate shaker for 5 min, and absorbances are measured at 570 nm in a multiwell scanning spectrophotometer.
(§3) IC50 values, defined as the drug concentration (μM) inhibiting cell growth by 50% compared to control wells, are determined by fitting a sigmoidal curve to the data using a computer program. Resistance factor is calculated as a ratio of the IC50 against resistant cell line to the IC50 against parent cell line. The dose modification factor (DMF) is derived from a ratio of IC50 without BSO to that with BSO.

Human 2780CP cell line = assay: MTT cytotoxicity assay, cisplatin-resistant ovarian 2780CP cells, with or without BSO; format: cell-based; parameters: key to DMF vs. 2780CP Control (Without BSO) / DMF Control / DMF +BSO (MTC): DMF = IC50 without BSO / IC50 with BSO; settings: for IC50: Table 4
Text: as §1, §2, §3

2008 cell line = assay: MTT cytotoxicity assay, cisplatin-sensitive ovarian 2008 cells, with or without BSO; format: cell-based, Human; settings: for IC50: Table 4
Text: as §1, §2, §3

2008/C13* cell line = assay: MTT cytotoxicity assay, cisplatin-resistant ovarian 2008/C13* cells, with or without BSO; format: cell-based, Human; settings: for IC50: Table 4
Text: as §1, §2, §3

SKOV-3 cell line = assay: MTT cytotoxicity assay, cisplatin-resistant SKOV-3 cells, with or without BSO; format: cell-based, Human; settings: for IC50: Table 4
Text: as §1, §2, §3

[1] = test system: sensitive and resistant cells; settings: cited from earlier work
[2] = test system: human melanoma cell line (RPMI 8322); settings: cited from earlier work
[3] = target: T1, γ-Glutamylcysteine synthetase (Rattus norvegicus, UniProt P19468); settings: cited from earlier work
T1 sequence (P19468 1-637): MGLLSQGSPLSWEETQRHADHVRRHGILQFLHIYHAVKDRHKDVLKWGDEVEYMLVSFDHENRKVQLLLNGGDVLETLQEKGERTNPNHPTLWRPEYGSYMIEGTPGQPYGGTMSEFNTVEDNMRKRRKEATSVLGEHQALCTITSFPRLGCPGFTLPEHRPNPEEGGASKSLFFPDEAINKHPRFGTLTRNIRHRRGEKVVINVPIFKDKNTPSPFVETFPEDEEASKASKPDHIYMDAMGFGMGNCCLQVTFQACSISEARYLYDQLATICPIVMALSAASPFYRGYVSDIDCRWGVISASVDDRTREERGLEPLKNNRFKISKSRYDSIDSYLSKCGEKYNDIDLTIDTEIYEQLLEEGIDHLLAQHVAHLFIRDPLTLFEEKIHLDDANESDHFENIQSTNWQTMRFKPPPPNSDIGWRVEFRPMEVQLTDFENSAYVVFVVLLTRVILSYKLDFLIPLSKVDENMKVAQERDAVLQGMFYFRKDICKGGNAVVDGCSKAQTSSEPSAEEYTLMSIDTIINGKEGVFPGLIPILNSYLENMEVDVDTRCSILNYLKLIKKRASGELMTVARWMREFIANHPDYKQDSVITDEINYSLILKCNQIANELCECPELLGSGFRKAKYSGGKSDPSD

N.N.[Cl][Pt][Cl] [Complex 1, cis-diamminedichloroplatinum, reference compound]
IC50 (Human A2780 cell line; A2780, BSO at MTC, read-out: IC50 +BSO (MTC)): 4.25 µM | IC50 (Human A2780 cell line; A2780, absence of BSO, read-out: IC50 Control): 6.75 µM | DMF +BSO (MTC) (Human A2780 cell line; Table 5, A2780, BSO at MTC): 1.59 | DMF Control (Human A2780 cell line; Table 5, A2780, absence of BSO (reference)): 1.00 | RF Control (Human A2780 cell line; Table 6, A2780 parent line without BSO (reference)): 1.00 | Resistance Factor vs. 2780CP +10 μM BSO (Human 2780CP cell line; IC50 2780CP with 10 μM BSO / IC50 A2780 without BSO): 12.1 | Resistance Factor vs. 2780CP +3 mM BSO (MTC) (Human 2780CP cell line; IC50 2780CP with 3 mM BSO (MTC) / IC50 A2780 without BSO): 8.63 | Resistance Factor vs. 2780CP Control (Without BSO) (Human 2780CP cell line; IC50 2780CP without BSO / IC50 A2780 without BSO): 14.9 | IC50 (Human 2780CP cell line; 2780CP, BSO at MTC, read-out: IC50 +BSO (MTC)): 58.3 µM | IC50 (Human 2780CP cell line; 2780CP, absence of BSO, read-out: IC50 Control): 101 µM | DMF +BSO (MTC) (Human 2780CP cell line; Table 5, 2780CP, BSO at MTC): 1.73 | DMF Control (Human 2780CP cell line; Table 5, 2780CP, absence of BSO (reference)): 1.00 | RF +BSO (MTC) (Human 2780CP cell line; Table 6, 2780CP with BSO vs. A2780 without BSO): 8.63 | RF Control (Human 2780CP cell line; Table 6, 2780CP without BSO vs. A2780 without BSO): 14.9 | increase in antitumor activity when combined with BSO (Human 2780CP cell line; in both sensitive and resistant models (Table 2: A2780 and 2780CP)): less than 2 fold | IC50 (2008 cell line; 2008, BSO at MTC, read-out: IC50 +BSO (MTC)): 0.77 µM | IC50 (2008 cell line; 2008, absence of BSO, read-out: IC50 Control): 1.42 µM | DMF +BSO (MTC) (2008 cell line; Table 5, 2008, BSO at MTC): 1.84 | DMF Control (2008 cell line; Table 5, 2008, absence of BSO (reference)): 1.00 | RF Control (2008 cell line; Table 6, 2008 parent line without BSO (reference)): 1.00 | IC50 (2008/C13* cell line; 2008/C13*, BSO at MTC, read-out: IC50 +BSO (MTC)): 10.4 µM | IC50 (2008/C13* cell line; 2008/C13*, absence of BSO, read-out: IC50 Control): 20.8 µM | DMF +BSO (MTC) (2008/C13* cell line; Table 5, 2008/C13*, BSO at MTC): 2.00 | DMF Control (2008/C13* cell line; Table 5, 2008/C13*, absence of BSO (reference)): 1.00 | RF +BSO (MTC) (2008/C13* cell line; Table 6, 2008/C13* with BSO vs. 2008 without BSO): 7.32 | RF Control (2008/C13* cell line; Table 6, 2008/C13* without BSO vs. 2008 without BSO): 14.6 | IC50 (SKOV-3 cell line; SKOV-3, BSO at sub-MTC, read-out: IC50 +BSO (MTC)): 21.1 µM | IC50 (SKOV-3 cell line; SKOV-3, absence of BSO, read-out: IC50 Control): 33 µM | DMF +BSO (MTC) (SKOV-3 cell line; Table 5, SKOV-3, BSO at sub-MTC): 1.56 | DMF Control (SKOV-3 cell line; Table 5, SKOV-3, absence of BSO (reference)): 1.00 | RF +BSO (MTC) (SKOV-3 cell line; Table 6, SKOV-3 with BSO vs. 2008 without BSO): 14.9 | RF Control (SKOV-3 cell line; Table 6, SKOV-3 without BSO vs. 2008 without BSO): 23.2 | increase in antitumor activity in combination with BSO, isolated publications ([1]; isolated publications): up to 4 fold | increase in antitumor activity in combination with BSO, usual ([1]; usually): under 2 fold | dose modification factor (DMF), potentiation by BSO ([2]; BSO pretreatment, RPMI 8322): 1.5

CCCCS(=N)(=O)CCC(N)C(=O)O (centres unmarked) [S-butyl homocysteine sulfoximine]
inhibition effectiveness relative to methionine sulfoximine ([3]; vs. methionine sulfoximine): at least 100 times | inhibition effectiveness relative to prothionine sulfoximine ([3]; vs. prothionine sulfoximine): about 20 times

N[C@@H](Cc1ccc(N(CCCl)CCCl)cc1)C(=O)O [melphalan]
effect of BSO pretreatment on cytotoxicity [2]: enhanced cytotoxicity
